In PubChem BioAssay AID248 (DTP/NCI, 2004):
Values joined by “and” are separate entries in the source; they are usually repeats but may differ in a detail not shown here. Equal values may be shown once. Inconclusive results and toxic doses are left out. No stated cut-off is given here; in the data, active means T/C of 150% or more; inactive means T/C below 125%.

Tested on: L1210 leukemia ip in BDF1 mice, survival T/C
Experiment: NCI In Vivo Anticancer Drug Screen. Data for tumor model L1210 Leukemia (intraperitoneal) in B6D2F1 (BDF1) mice
Settings: endpoint: mean survival time, higher = longer survival
Summary of the method: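 In this screen, tumor-bearing mice given compound are compared to those given vehicle, and their survival values are reported as a treated-to-control quotient.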

[1] = dose: 100.0 mg/kg/injection, schedule: Q01DX009 (ip), vehicle: saline with Tween-80
[2] = dose: 100.0 mg/kg/injection, schedule: Q04DX003 (ip), vehicle: saline with Tween-80
[3] = dose: 200.0 mg/kg/injection, schedule: Q04DX003 (ip), vehicle: saline with Tween-80
[4] = dose: 200.0 mg/kg/injection, schedule: Q01DX009 (ip), vehicle: saline with Tween-80
[5] = dose: 400.0 mg/kg/injection, schedule: Q01DX009 (ip), vehicle: saline with Tween-80
[6] = dose: 400.0 mg/kg/injection, schedule: Q04DX003 (ip), vehicle: saline with Tween-80
[7] = dose: 25.0 mg/kg/injection, schedule: Q01DX009 (ip), vehicle: saline
[8] = dose: 25.0 mg/kg/injection, schedule: Q04DX003 (ip), vehicle: saline
[9] = dose: 50.0 mg/kg/injection, schedule: Q01DX009 (ip), vehicle: saline
[10] = dose: 50.0 mg/kg/injection, schedule: Q04DX003 (ip), vehicle: saline
[11] = dose: 100.0 mg/kg/injection, schedule: Q01DX001 (ip), vehicle: carboxymethylcellulose (CMC)
[12] = dose: 200.0 mg/kg/injection, schedule: Q01DX001 (ip), vehicle: carboxymethylcellulose (CMC)
[13] = dose: 100.0 mg/kg/injection, schedule: Q01DX001 (ip), vehicle: Klucel (hydroxypropylcellulose) (HPC)
[14] = dose: 200.0 mg/kg/injection, schedule: Q01DX001 (ip), vehicle: Klucel (hydroxypropylcellulose) (HPC)
[15] = dose: 100.0 mg/kg/injection, schedule: Q01DX009 (ip), vehicle: Klucel (hydroxypropylcellulose) (HPC)
[16] = dose: 100.0 mg/kg/injection, schedule: Q04DX003 (ip), vehicle: Klucel (hydroxypropylcellulose) (HPC)
[17] = dose: 200.0 mg/kg/injection, schedule: Q04DX003 (ip), vehicle: Klucel (hydroxypropylcellulose) (HPC)
[18] = dose: 400.0 mg/kg/injection, schedule: Q04DX003 (ip), vehicle: Klucel (hydroxypropylcellulose) (HPC)
[19] = dose: 100.0 mg/kg/injection, schedule: Q04DX002 (ip), vehicle: Klucel (hydroxypropylcellulose) (HPC)

Measured: T/C

Nc1cc2c3ccccc3ccc2c2ccccc12
inactive: dose: 67.0 mg/kg/injection, schedule: Q01DX009 (ip), vehicle: saline with Tween-80 105 % of control | [1] 105 % of control | dose: 150.0 mg/kg/injection, schedule: Q01DX009 (ip), vehicle: saline with Tween-80 96 % of control | dose: 225.0 mg/kg/injection, schedule: Q01DX009 (ip), vehicle: saline with Tween-80 97 % of control

COC(=O)C(CCCCN=Cc1ccccc1O)N=Cc1ccccc1O.[Ni] (stereo not given)
inactive: [2] 87 % of control | [3] 88 % of control

Oc1ccc(C=Nc2ccccc2N=Cc2ccc(O)c(O)c2)cc1O
inactive: [1] 105 % of control | [2] 100 % of control | [4] 100 % of control | [3] 96 % of control | [5] 100 % of control | [6] 91 % of control

C(=NCC1CCC(CN=Cc2ccco2)CC1)c1ccco1 (stereo not given)
inactive: [1] 94 % of control | [2] 109 % of control | [4] 98 % of control | [3] 102 % of control | [5] 100 % of control | [6] 106 % of control

C[P+](C)(Cc1ccc([N+](=O)[O-])cc1)c1ccccc1
inactive: dose: 12.0 mg/kg/injection, schedule: Q04DX003 (ip), vehicle: saline 98 % of control | [7] 105 % of control | [8] 104 % of control | [9] 109 % of control | [10] 104 % of control

COCN1CCN(COC)C1=O
inactive: dose: 100.0 mg/kg/injection, schedule: Q04DX002 (ip), vehicle: saline 105 % of control | dose: 200.0 mg/kg/injection, schedule: Q04DX002 (ip), vehicle: saline 108 % of control | dose: 400.0 mg/kg/injection, schedule: Q04DX002 (ip), vehicle: saline 122 % of control

COc1cccc(/C(C)=C2\SC(=S)NC2=O)c1
inactive: [11] 100 % of control | [12] 94 % of control

CCOC(=O)c1c(-c2ccccc2)cn2c1OC(C)CC2(C)C (stereo not given)
inactive: [13] 105 % of control | [14] 100 % of control | dose: 400.0 mg/kg/injection, schedule: Q01DX001 (ip), vehicle: Klucel (hydroxypropylcellulose) (HPC) 93 % of control

OCCCNc1nc2cc(Cl)ccc2c2ccc(Cl)cc12
inactive: [15] 90 % of control | [16] 88 % of control | [17] 97 % of control | [18] 103 % of control

CNC(=S)NNc1ccccc1
inactive: [15] 110 % of control | [16] 104 % of control | dose: 100.0 mg/kg/injection, schedule: Q04DX003 (ip), vehicle: gum acacia 98 % of control | dose: 200.0 mg/kg/injection, schedule: Q01DX009 (ip), vehicle: Klucel (hydroxypropylcellulose) (HPC) 103 % of control | [17] 104 % of control | dose: 200.0 mg/kg/injection, schedule: Q04DX003 (ip), vehicle: gum acacia 96 % of control | dose: 400.0 mg/kg/injection, schedule: Q01DX009 (ip), vehicle: Klucel (hydroxypropylcellulose) (HPC) 103 % of control | [18] 103 % of control | dose: 400.0 mg/kg/injection, schedule: Q04DX003 (ip), vehicle: gum acacia 101 % of control

Clc1ccc(/C=N/Nc2nnc(N/N=C/c3ccc(Cl)cc3Cl)c3ccccc23)c(Cl)c1
inactive: dose: 50.0 mg/kg/injection, schedule: Q01DX001 (ip), vehicle: carboxymethylcellulose (CMC) 88 % of control | [11] 89 % of control | [12] 93 % of control | dose: 400.0 mg/kg/injection, schedule: Q01DX001 (ip), vehicle: carboxymethylcellulose (CMC) 100 % of control

O=C(O)c1ccccc1C(=O)c1cccc2c(Cl)cccc12
inactive: dose: 50.0 mg/kg/injection, schedule: Q01DX001 (ip), vehicle: Klucel (hydroxypropylcellulose) (HPC) 97 % of control | [13] 92 % of control | [14] 91 % of control

Cc1cc(C)c(CSC(=N)N)c(C)c1
inactive: dose: 25.0 mg/kg/injection, schedule: Q04DX002 (ip), vehicle: Klucel (hydroxypropylcellulose) (HPC) 88 % of control | dose: 50.0 mg/kg/injection, schedule: Q04DX002 (ip), vehicle: Klucel (hydroxypropylcellulose) (HPC) 92 % of control | [19] 100 % of control and 89 % of control

O=C(COc1ccc(Cl)cc1Cl)Nc1c(Cl)cc(Cl)cc1Cl
inactive: [19] 99 % of control | dose: 200.0 mg/kg/injection, schedule: Q04DX002 (ip), vehicle: Klucel (hydroxypropylcellulose) (HPC) 108 % of control | dose: 400.0 mg/kg/injection, schedule: Q04DX002 (ip), vehicle: Klucel (hydroxypropylcellulose) (HPC) 86 % of control

c1cc2c([nH]1)CCCC2
inactive: dose: 75.0 mg/kg/injection, schedule: Q01DX001 (ip), vehicle: acetone 106 % of control | dose: 150.0 mg/kg/injection, schedule: Q01DX001 (ip), vehicle: acetone 111 % of control | dose: 300.0 mg/kg/injection, schedule: Q01DX001 (ip), vehicle: acetone 100 % of control

c1ccc([Si](O[O][Ge]([c]2ccccc2)([c]2ccccc2)[c]2ccccc2)(c2ccccc2)c2ccccc2)cc1
inactive: [16] 93 % of control | [17] 86 % of control | [18] 89 % of control

Nc1ncnc(N)c1NC(=O)c1cc(Cl)c(OCc2ccccc2)c(Cl)c1
inactive: dose: 100.0 mg/kg/injection, schedule: Q01DX001 (ip), vehicle: saline with Tween-80 91 % of control | dose: 200.0 mg/kg/injection, schedule: Q01DX001 (ip), vehicle: saline with Tween-80 96 % of control | dose: 400.0 mg/kg/injection, schedule: Q01DX001 (ip), vehicle: saline with Tween-80 96 % of control

N#CCCC(C#N)(c1cccnc1)N1CCOCC1 (stereo not given)
inactive: dose: 6.25 mg/kg/injection, schedule: Q04DX002 (ip), vehicle: saline with Tween-80 98 % of control | dose: 12.5 mg/kg/injection, schedule: Q04DX002 (ip), vehicle: saline with Tween-80 98 % of control | dose: 25.0 mg/kg/injection, schedule: Q04DX002 (ip), vehicle: saline with Tween-80 98 % of control

C[N+](C)(C)c1ccc(/C=C2/CCCCC2=O)cc1
inactive: dose: 12.5 mg/kg/injection, schedule: Q01DX009 (ip), vehicle: saline 117 % of control | dose: 12.5 mg/kg/injection, schedule: Q04DX003 (ip), vehicle: saline 97 % of control | [7] 100 % of control | [8] 92 % of control | [9] 103 % of control | [10] 106 % of control
